Legend:
HeLa cells = assay: Observation of intracellular localization of fluorescent probe and competition assay (microscopy, anti-SC-35 staining); format: cell-based; settings: for fluorescence intensity derived from the fluorescent probe after competition (rank order): 1 μM competitor added 1 hour before 1 μM fluorescent probe, lower intensity = stronger competition
Procedure: 1 μM of the fluorescent probe produced in Example A2 was added to HeLa cells, and the obtained mixture was incubated at 37° C. in an incubator for 1 hour. Thereafter, the medium was removed, and the remaining culture was further cultured for 1 hour in a fresh medium without probes and non-specifically adsorbed compounds were washed. The medium was removed again. The remaining culture was then washed with PBS. Thereafter, the cells were immobilized in 3.7% formaldehyde in PBS.
The immobilized cells were well washed with PBS, and were then permeabilized with 0.5% or 1% Triton X-100 in PBS. Thereafter, blocking was carried out with FBS or a blocking solution, and a primary antibody (anti-SC-35 monoclonal antibody; Sigma; S4045) was added to the resultant, so as to carry out a reaction. The reaction product was washed with PBS, and blocking was carried out again with FBS or a blocking solution. A fluorescent-labeled secondary antibody (TexasRed-labeled; Jackson) was added to the resultant, so as to carry out a reaction. The labeled sample was rapidly rinsed with distilled water, and it was then encapsulated into a Prolong antifade reagent (Molecular Probes). Localization of the fluorescent probe and the anti-SC-35 antibody was observed under a fluorescence microscope (DeltaVision, Applied Precision, Inc.) or a confocal microscope (LSM510; Carl Zeiss).
Furthermore, pladienolides or the derivatives thereof were used in the aforementioned experimental operations to carry out a competition assay. That is, before addition of the fluorescent probe, 1 μM pladienolides or the derivatives thereof were added to the cells, and the obtained mixture was then cultured for 1 hour. Thereafter, the same above operations for immobilization and staining were performed on the culture, followed by observation with a microscope, so as to confirm localization of the fluorescent probe.

SAP145 or SAP130 = molecular target: T1, SAP145 or SAP130 (Homo sapiens, UniProt O75533+Q15393+Q7RTV0); assay: Detection of bound protein by treatment with photoaffinity biotin probe (immunoprecipitation, UV crosslinking, streptavidin-HRP); format: binding; settings: 1.5 μM probe, MDA-MB-468 2000 g-pellet, all antibodies, SDS-PAGE
T1 construct: endogenous in cells; host or cells: MDA-MB-468 (nuclear fraction, immunoprecipitate)
Procedure: 2000 g-pellet was prepared from MDA-MB-468 cells by the method described in Example B1. This pellet was suspended in a CSK buffer (300 mM sucrose, 100 mM NaCl, 3 mM MgCl2, 10 mM PIPES, pH=7.0, protease inhibitor cocktail), and the obtained suspension was then treated with the 1.5 μM photoaffinity biotin probe synthesized in Example A3. The suspension was left at rest at 4° C. for 1 hour, and it was then centrifuged at 2000 g at 4° C. for 10 minutes. The supernatant was removed, and a nuclear fraction was then prepared from the obtained precipitate by the same method as that described in Example B1. Thereafter, an immunoprecipitation solution was prepared by the sable method as that described in Example B4.
UV (365 nm and 302 nm) was applied to the obtained immunoprecipitate (agarose resin), and a crosslinking reaction was carried out. An SDS […] buffer was added to the reaction product, and the obtained mixture was then stirred with a vortex, followed by boiling at 99° C. for 10 minutes, so as to elute the immunoprecipitated proteins. The eluant was subjected to SDS-PAGE and blotting onto a PVDF membrane in accordance with common methods. Thereafter, the resultant was treated with streptavidin-HRP, so as to detect probe-bound proteins. […]

SAP130 = molecular target: T2, SAP130 (Homo sapiens, UniProt O75533+Q15393+Q7RTV0); assay: Detection of band shift using GFP-fused SAP145 or GFP-fused SAP130 proteins with photoaffinity biotin probe; format: binding; settings: 1.5 μM probe, HeLa cells stably expressing GFP-SAP145 or GFP-SAP130, band shift
T2 construct: expressed in transfected cells
Procedure: SAP145 and SAP130, which were considered to be target molecules, were detected in almost the same position on SDS-PAGE. Thus, strains stably expressing a GFP-fused SAP145 or GFP-fused SAP 130 protein were prepared, and an experiment was then […] out using a photoaffinity biotin probe.
A 1.5 μM photoaffinity biotin probe was added to HeLa cells stably expressing GFP-SAP145, and the obtained mixture was then cultured for 1 hour. After washing the cells with PBS, M-PER (PIERCE) was then added thereto, followed by stirring at 4° C. for 1 hour. Thereafter, 1/10 vol. of 1.5 M NaCl-0.5% Tween 20 solution was added to the reaction solution, and the obtained mixture was then treated with a vortex (10 sec.×3). The resultant was centrifuged at 15,000 rpm at 4° C. for 5 minutes (TOMY MX-15). The thus obtained supernatant was filtrated with a 0.45-μm membrane, and the filtrate was used in the following immunoprecipitation experiment. […]
Moreover, using the same samples. SAP145 and SAP130 were detected with the SAP145 antibody and the SAP130 antibody, respectively.
Furthermore, an agarose resin prepared from probe-untreated cells was treated with a probe in the aforementioned experimental operations. Thereafter, UV irradiation and elution of a protein were carried out by the same operations as above, and it was examined whether or not the same band was detected in the obtained sample. […]

[1] = test system: human breast cancer cells MDA-MB-468; assay: Intracellular distribution of tritium probe compound (cell fractionation, cold inhibition, charcoal assay); format: cell-based
Procedure: The tritiated probe compound produced in Example A1 was added to human breast cancer cells MDA-MB-468 (ATCC HTB-132) cultured on a 15-cm dish (>80% confluent), resulting in a concentration of 3 to 30 nM. The obtained mixture was then cultured in an incubator at 37° C. for 1 hour. After removing the medium, the culture was then washed with a Hanks' balanced salt solution (10 ml×2). Then, 3 ml of a 10% glycerol hypotonic buffer (10% glycerol, 20 mM NaCl, 1 mM EDTA, 10 mM Tris-HCl, pH=7.8, protease inhibitor cocktail) was added to the resultant. The obtained mixture was left at rest for a while, and the cells were then recovered using a cell scraper. A cell lysate was prepared using a Dounce homogenizer.
The lysate was centrifuged at 2,000 g at 4° C. for 10 minutes, so as to obtain a supernatant (2000 g-sup.) and a precipitate (2000 g-pellet). 2000 g-sup. was further centrifuged at 100,000 g at 4° C. for 60 minutes, so as to obtain a cytosol fraction as a supernatant, and a membrane fraction as a precipitate. 2000 g-pellet was suspended in 0.5 M NaCl, and the suspension was then left at rest for 30 minutes under cooling on ice, so as to elute a nuclear protein. Thereafter, centrifugation was carried out at 3,000 g at 4° C. for 10 minutes, so as to obtain a nuclear fraction as a supernatant, and a nuclear pellet as a precipitate.
The radioactivity of a tritium probe existing in each fraction was measured by the following method. That is, each of the cytosol fraction and the nuclear fraction was uniformly mixed with Hionic-Fluor (Perkin Elmer). On the other hand, each of the membrane fraction and the nuclear pellet was dissolved in Soluene-350 (Packard) (1 ml), and the obtained solution was then mixed with Hionic-Fluor. The radioactivity of each mixture was measured with a liquid scintillation counter.
At the same time, a radioisotope-non-labeled-pladienolide was used to carry out a cold inhibition experiment. That is, the cells were treated with a pladienolide having a concentration (0.15 to 1.5 μM) that was 50 times higher than the tritium probe treatment concentration, and they were then cultured at 37° C. in an incubator for 1 hour. Thereafter, the culture was treated with a tritium probe, and each fraction was prepared. Then, the radioactivity thereof was measured.
That is, 1/10 vol. (volume ratio) of a 10% activated charcoal suspension was added to each of the cytosol fraction and the nuclear fraction, followed by a treatment with a vortex for several seconds. The resultant was centrifuged at 15,000 rpm at 4° C. for 5 minutes (TOMY mini MX-15), and the radioactivity of the supernatant was measured in the same manner as that described above.

U2 snRNP complex = molecular target: T3, U2 snRNP complex (Homo sapiens, UniProt O75533+Q15393+Q7RTV0); assay: Immunoprecipitation experiment of nuclear fraction prepared from tritium probe-treated cells; format: binding; settings: 30 nM probe, MDA-MB-468 nuclear fraction, TMG, U1A/U2B″, SM BB′ & D1, SAP155, SAP145, cyclin E antibodies
T3 construct: endogenous in cells; host or cells: MDA-MB-468
Procedure: MDA-MB-468 cells were cultured in the presence of a 30 nM tritium probe for 1 hour. Thereafter, a nuclear fraction was prepared by the same method as that described in Example B1. A dilution buffer was added to the nuclear fraction to a final concentration of 0.15 M NaCl, 0.05% CA-630 and 40 mM tris-HCl (pH=7.5), so as to prepare an immunoprecipitation solution.
To this solution, each of antibodies reacting with splicing factors, transcriptional factors, or molecules associated with such factors were added to a concentration of 1 μg/ml. The obtained mixture was slowly stirred for approximately 12 hours in a low-temperature chamber of 4° C., using a sample rotator. Thereafter, 20 μl of 50% Protein A/G-agarose conjugate suspension was added to the reaction solution, and the obtained mixture was further stirred for 2 hours in the low-temperature chamber.
The agarose resin was recovered, and it was then washed with a washing solution (0.15 M NaCl, 0.05% CA-630, 20 mM tris-HCl, pH=7.5). An SDS sample buffer was added to the resultant solution, and the obtained mixture was then stirred with a vortex. The reaction solution was boiled at 99° C. for 10 minutes, so as to elute the immunoprecipitated protein. The eluant was mixed homogeneously with Hionic-Fluor, and the radioactivity of a tritium probe existing in the eluant was then measured with a liquid scintillation counter.

CCC(O)C(C)C1OC1CC(C)C=CC=C(C)C1OC(=O)CC(O)CCC(C)(O)C(OC(=O)NCCOCCOCCNC(=O)CCCCC2=[N+]3C(=Cc4c(C)cc(C)n4[B-]3(F)F)C=C2)C=CC1C (centres unmarked) [fluorescent probe, 7-(N-(2-(2-(2-(N-(5-(5,5-difluoro-7,9-dimethyl-5H-dipyrrolo[1,2-c:2′,1′-f][1,3,2]diazaborinin-4-ium-5-uid-3-yl)pentanoyl)amino)ethoxy)ethoxy)ethyl)carbamoyloxy)-3,6,21-trihydroxy-6,10,12,16,20-pentamethyl-18,19-epoxytricosa-8,12,14-trien-11-olide]
intracellular localization of fluorescent probe (HeLa cells; 1 μM probe, 1 hour, co-staining with anti-SC-35 antibody): mainly localized in granular structures in the nuclei

CCC(O)C(C)C1OC1CC(C)/C=C/C=C(\C)C1OC(=O)CC(O)CCC(C)(O)C(OC(=O)NCCCC[C@H](NC(=O)c2ccc(C3(C(F)(F)F)NN3)cc2)C(=O)N(C)CCN(C)C(=O)CCCC[C@@H]2SC[C@@H]3NC(=O)N[C@@H]32)/C=C/C1C (stereo partly drawn) [photoaffinity biotin probe, (8E,2E,14E)-3,621-trihydroxy-6,10,12,16,20-pentamethyl-7-(N-((5S)-6-(N-methyl-N-(2-(N-methyl-N-(5-((3aS,4S,6aR)-2-oxohexahydro-1H-thieno[3,4-d]imidazol-4-yl)pentanoyl)amino)ethyl)amino)-6-oxo-5-(N-(4-(3-(trifluoromethyl)-3H-diaziren-3-yl)benzoyl)amino)hexyl)carbamoyloxy)-18,19-epoxytricosa-8,12,14-trien-11-olide]
position of band of probe-bound protein (SAP145 or SAP130): 130-140 kDa | protein to which the probe has bound (SAP130): not SAP145 but SAP130

CCC(O)C(C)C1OC1CC(C)/C=C/C=C(\C)C1OC(=O)CC(O)CCC(C)(O)C(O)/C=C/C1C (centres unmarked) [pladienolide A]
fluorescence intensity derived from the fluorescent probe after competition (rank order) (HeLa cells): pladienolide A >non-labeled tritium probe compound >pladienolides B and D

CCC(O)C(C)C1OC1CC(C)/C=C/C=C(\C)C1OC(=O)CC(O)CCC(C)(O)C(OC(C)=O)/C=C/C1C (centres unmarked) [pladienolide B, reference compound]
radioactivity of tritium probe after pre-treatment with non-labeled pladienolide (cold inhibition) ([1]; pre-treatment at 50 times the tritium probe concentration (0.15 to 1.5 μM), 1 hour): almost completely disappeared | fluorescence intensity derived from the fluorescent probe after competition (rank order) (HeLa cells): pladienolide A >non-labeled tritium probe compound >pladienolides B and D

(8E,12E,14E)-7-(N—[G-^3H]ethylcarbamoyloxy)-3,6,21-trihydroxy-6,10,12,16,20-pentamethyl-18,19-epoxytricosa-8,12,14-trien-11-olide [tritium probe]
radioactivity of tritium probe existing in each cell fraction ([1]; MDA-MB-468 cells, probe 3 to 30 nM, 1 hour, cytosol, membrane, nuclear fraction, nuclear pellet): highest radioactivity of the tritium probe was detected in the nuclear fraction | radioactivity of the cytosol fraction after treatment with activated charcoal ([1]; charcoal assay, cytosol fraction): almost all the radioactivity of the cytosol fraction disappeared | radioactivity in the nuclear fraction after treatment with activated charcoal ([1]; charcoal assay, nuclear fraction): did not disappear | radioactivity of tritium probe co-immunoprecipitated with antibodies (U2 snRNP complex): specific radioactivity was observed

pladienolide D
fluorescence intensity derived from the fluorescent probe after competition (rank order) (HeLa cells): pladienolide A >non-labeled tritium probe compound >pladienolides B and D

From US20090227795A1, “TARGET MOLECULES OF PLADIENOLIDES, COMPOUNDS BINDING TO SUCH TARGET MOLECULES, AND SCREENING METHOD THEREOF” (Eisai R & D Management Co., Ltd., priority 2006, published 2009)
